Source: ChEMBL document CHEMBL5512688 (J Med Chem, 2024)

System: not listed separately
Assay: Metabolic stability in mouse liver microsome assessed as parent compound remaining measured at 60 mins by LCMS/MS analysis
Assay type: ADME
Settings: liver microsomes, read-out: Stability

SMILES | remaining at 1 h [%]
C=CCn1c(=O)c2cnc(Nc3ccc(N4CCN(C)CC4)cc3)nc2n1-c1cccc(-n2cc(C)cn2)n1 | 11.2
C=CCn1c(=O)c2cnc(Nc3ccc(N4CCN(C)CC4)cc3)nc2n1-c1cccc(-n2cccn2)n1 | 8.82
C=CCn1c(=O)c2cnc(Nc3ccc(N4CCN(C)CC4)cc3)nc2n1-c1cccc(-c2cc(F)ccn2)n1 | 13.4
C=CCn1c(=O)c2cnc(Nc3ccc(C4CCN(C)CC4)cc3)nc2n1-c1cccc(-c2cccnn2)n1 | 44.7

System: A-427
Assay: Antiproliferative activity against human A-427 cells assessed as inhibition of cell growth incubated for 72 hrs by CCK-8 assay
Assay type: functional, cell-based
Settings: A-427, 72 h

SMILES | IC50 [nM]
C=CCn1c(=O)c2cnc(Nc3ccc(N4CCN(C)CC4)cc3)nc2n1-c1cc(-c2cnccn2)ccn1 | 3510
C=CCn1c(=O)c2cnc(Nc3ccc(N4CCN(C)CC4)cc3)nc2n1-c1cccc(-n2ccc(C)n2)n1 | 898
C=CCn1c(=O)c2cnc(Nc3ccc(N4CCN(C)CC4)cc3)nc2n1-c1cccc(-c2cnn(C(F)F)c2)n1 | 372
C=CCn1c(=O)c2cnc(Nc3ccc(N4CCN(C)CC4)cc3)nc2n1-c1cccc(-n2nc(C)cc2C)n1 | 955
C=CCCn1c(=O)c2cnc(Nc3ccc(N4CCN(C)CC4)cc3)nc2n1-c1cccc(-c2cnccn2)n1 | 1050
C=CCn1c(=O)c2cnc(Nc3ccc(N4CCN(C)CC4)cc3)nc2n1-c1ccc2cnn(C(C)C)c2c1 | 315
C=CCn1c(=O)c2cnc(Nc3ccc(N4CCN(C)CC4)cc3)nc2n1-c1ccc2ccccc2n1 | 949
COCCn1c(=O)c2cnc(Nc3ccc(N4CCN(C)CC4)cc3)nc2n1-c1cccc(-c2cnccn2)n1 | 512
C=CCn1c(=O)c2cnc(Nc3ccc(N4CCN(C)CC4)cc3)nc2n1-c1cncc(-c2cnccn2)c1 | 4180
C=CCn1c(=O)c2cnc(Nc3ccc(N4CCN(C)CC4)cc3)nc2n1-c1cccc(-c2cnn(C)c2)n1 | 616
C=CCn1c(=O)c2cnc(Nc3ccc(N4CCN(C)CC4)cc3)nc2n1-c1cccc(-c2ncc(C#N)cn2)n1 | 342
C=CCn1c(=O)c2cnc(Nc3ccc(N4CCN(C)CC4)cc3)nc2n1-c1ccc2ncn(C(C)C)c2c1 | 310
C=CCn1c(=O)c2cnc(Nc3ccc(N4CCN(C)CC4)cc3)nc2n1-c1cccc(-n2cc(C)cn2)n1 | 221
C=CCn1c(=O)c2cnc(Nc3ccc(N4CCN(C)CC4)cc3)nc2n1-c1cccc(-n2cccn2)n1 | 252
C=CCn1c(=O)c2cnc(Nc3ccc(N4CCN(C)CC4)cc3)nc2n1-c1cccc(-c2cc(F)ccn2)n1 | 240
CC(C)n1c(=O)c2cnc(Nc3ccc(N4CCN(C)CC4)cc3)nc2n1-c1cccc(-c2cnccn2)n1 | 1410
CN1CCN(c2ccc(Nc3ncc4c(=O)n(CC5CC5)n(-c5cccc(-c6cnccn6)n5)c4n3)cc2)CC1 | 1870
C=CCn1c(=O)c2cnc(Nc3ccc(N4CCN(C)CC4)cc3)nc2n1-c1cccc(-c2cnc(Cl)cn2)n1 | 434
C=CCn1c(=O)c2cnc(Nc3ccc(N4C5CCC4CN(C)C5)cc3)nc2n1-c1cccc(-c2cnccn2)n1 | 603
C=CCn1c(=O)c2cnc(Nc3ccc(C4CCN(C)CC4)cc3)nc2n1-c1cccc(-c2cccnn2)n1 | 156

Target: Wee1-like protein kinase (Homo sapiens, UniProt P30291)
Sequence (P30291 whole entry, the tested form may be a part): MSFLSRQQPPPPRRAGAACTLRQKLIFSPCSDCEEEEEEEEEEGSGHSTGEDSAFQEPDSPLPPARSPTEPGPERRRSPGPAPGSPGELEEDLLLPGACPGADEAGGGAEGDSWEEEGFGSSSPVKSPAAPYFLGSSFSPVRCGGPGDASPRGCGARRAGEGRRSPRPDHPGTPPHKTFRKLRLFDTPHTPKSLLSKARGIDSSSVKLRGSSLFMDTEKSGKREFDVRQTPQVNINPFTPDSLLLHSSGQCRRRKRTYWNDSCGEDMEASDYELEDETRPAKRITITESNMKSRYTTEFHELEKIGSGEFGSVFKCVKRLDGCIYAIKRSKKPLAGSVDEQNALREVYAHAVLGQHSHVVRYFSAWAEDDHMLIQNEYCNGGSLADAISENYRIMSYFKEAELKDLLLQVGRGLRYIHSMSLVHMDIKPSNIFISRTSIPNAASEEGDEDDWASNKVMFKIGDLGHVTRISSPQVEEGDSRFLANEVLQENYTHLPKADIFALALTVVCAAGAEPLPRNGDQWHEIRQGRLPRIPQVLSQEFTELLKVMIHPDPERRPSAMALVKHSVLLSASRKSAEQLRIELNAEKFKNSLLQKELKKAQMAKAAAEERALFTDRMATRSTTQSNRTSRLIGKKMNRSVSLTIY
Assay: Inhibition of human Wee1 (215 to 647 residues) using polyornithine/tyrosine (4:1) as substrate incubated for 5 mins in presence of ATP by micro beta plate reader analysis
Settings: not given

SMILES | IC50 [nM]
C=CCn1c(=O)c2cnc(Nc3ccc(N4CCN(C)CC4)cc3)nc2n1-c1cc(-c2cnccn2)ccn1 | 12.6
C=CCn1c(=O)c2cnc(Nc3ccc(N4CCN(C)CC4)cc3)nc2n1-c1cccc(-n2ccc(C)n2)n1 | 4.1
C=CCn1c(=O)c2cnc(Nc3ccc(N4CCN(C)CC4)cc3)nc2n1-c1cccc(-c2cnn(C(F)F)c2)n1 | 2.5
C=CCn1c(=O)c2cnc(Nc3ccc(N4CCN(C)CC4)cc3)nc2n1-c1cccc(-n2nc(C)cc2C)n1 | 2.2
C=CCCn1c(=O)c2cnc(Nc3ccc(N4CCN(C)CC4)cc3)nc2n1-c1cccc(-c2cnccn2)n1 | 9.4
C=CCn1c(=O)c2cnc(Nc3ccc(N4CCN(C)CC4)cc3)nc2n1-c1ccc2cnn(C(C)C)c2c1 | 2.4
C=CCn1c(=O)c2cnc(Nc3ccc(N4CCN(C)CC4)cc3)nc2n1-c1ccc2ccccc2n1 | 2.2
COCCn1c(=O)c2cnc(Nc3ccc(N4CCN(C)CC4)cc3)nc2n1-c1cccc(-c2cnccn2)n1 | 16
C=CCn1c(=O)c2cnc(Nc3ccc(N4CCN(C)CC4)cc3)nc2n1-c1cncc(-c2cnccn2)c1 | 13.4
C=CCn1c(=O)c2cnc(Nc3ccc(N4CCN(C)CC4)cc3)nc2n1-c1cccc(-c2cnn(C)c2)n1 | 2.6
C=CCn1c(=O)c2cnc(Nc3ccc(N4CCN(C)CC4)cc3)nc2n1-c1cccc(-c2ncc(C#N)cn2)n1 | 2.4
C=CCn1c(=O)c2cnc(Nc3ccc(N4CCN(C)CC4)cc3)nc2n1-c1ccc2ncn(C(C)C)c2c1 | 2.1
C=CCn1c(=O)c2cnc(Nc3ccc(N4CCN(C)CC4)cc3)nc2n1-c1cccc(-n2cc(C)cn2)n1 | 3.7
C=CCn1c(=O)c2cnc(Nc3ccc(N4CCN(C)CC4)cc3)nc2n1-c1cccc(-n2cccn2)n1 | 2.4
C=CCn1c(=O)c2cnc(Nc3ccc(N4CCN(C)CC4)cc3)nc2n1-c1cccc(-c2cc(F)ccn2)n1 | 2.4
CC(C)n1c(=O)c2cnc(Nc3ccc(N4CCN(C)CC4)cc3)nc2n1-c1cccc(-c2cnccn2)n1 | 3.4
CN1CCN(c2ccc(Nc3ncc4c(=O)n(CC5CC5)n(-c5cccc(-c6cnccn6)n5)c4n3)cc2)CC1 | 33
C=CCn1c(=O)c2cnc(Nc3ccc(N4CCN(C)CC4)cc3)nc2n1-c1cccc(-c2cnc(Cl)cn2)n1 | 2.2
C=CCn1c(=O)c2cnc(Nc3ccc(N4C5CCC4CN(C)C5)cc3)nc2n1-c1cccc(-c2cnccn2)n1 | 2
C=CCn1c(=O)c2cnc(Nc3ccc(C4CCN(C)CC4)cc3)nc2n1-c1cccc(-c2cccnn2)n1 | 1.8

System: not listed separately
Assay: Metabolic stability in human liver microsome assessed as parent compound remaining measured at 60 mins by LCMS/MS analysis
Assay type: ADME
Settings: liver microsomes, read-out: Stability

SMILES | remaining at 1 h [%]
C=CCn1c(=O)c2cnc(Nc3ccc(N4CCN(C)CC4)cc3)nc2n1-c1cccc(-n2cc(C)cn2)n1 | 6.06
C=CCn1c(=O)c2cnc(Nc3ccc(N4CCN(C)CC4)cc3)nc2n1-c1cccc(-n2cccn2)n1 | 18
C=CCn1c(=O)c2cnc(Nc3ccc(N4CCN(C)CC4)cc3)nc2n1-c1cccc(-c2cc(F)ccn2)n1 | 30.7
C=CCn1c(=O)c2cnc(Nc3ccc(C4CCN(C)CC4)cc3)nc2n1-c1cccc(-c2cccnn2)n1 | 67
